Source: patent publication US10052304B2, “Compositions and methods for cancer therapy” (UNIVERSITY OF IOWA RESEARCH FOUNDATION, priority 2015, dated 2018)

Legend:
ferritin = settings: read-out: Km of ascorbate-mediated Fe^+2 release from ferritin; cited from earlier work
GBM cells = assay: Cellular labile iron pool (Calcein-AM flow cytometry), GBM cells; assay type: cell-based, human; settings: increasing doses of ascorbate
Procedure: (§1) The labile iron pool (LIP) was visualized using the fluorescent dye Calcein-AM as previously described (Epsztejn et al., 1997) with modifications. After labeling, samples were divided into two flow cytometry sample tubes, to which 100 μM 2′,2′-bipyridyl (BIP) was added to one tube and analyzed by flow cytometry. BIP tubes were incubated for at least 15 minutes before analysis to allow for full chelation of intracellular labile iron. The LIP (A.U.)=MFIBIP−MFINoBIP was normalized against the control samples to calculate the relative labile iron pool.
(§2) The labile iron pool (LIP) was visualized using the fluorescent dye Calcein-AM as previously described with modifications (Epsztejn et al., 1997). Briefly, after sample treatment, cells were trypsinized, spun at 1,200 rpm for 5 min, and resuspended at approximately 1×10^6 cells mL-1 in 500 nM Calcein-AM in PBS. Samples were incubated for 15 min at 4% O2 in a humidity controlled environment (37° C., 5% CO2). Subsequently, samples were pelleted, washed in PBS, and resuspended in 1 mL PBS before dividing each sample into two flow cytometry sample tubes, to which 100 μM 2′,2′-bipyridyl (BIP) was added to one tube. Samples were kept at room temperature and analyzed on a LSR II Flow Cytometer (BD Biosciences; λex=488 nm, λem=515/20 nm). […]

ARP1 = assay: Colony formation on soft agar, ARP1 myeloma cells; assay type: cell-based, human; settings: 1 h treatment, colonies after 10-14 days
Description: (§3) A two-layer agar system was used, and colonies were visualized after 10-14 days.

ETC complex IV = ETC complex IV activity after ascorbate exposure; assay type: cell-based, human; settings: NSCLC cell lysates
Procedure: (§4) Exponentially growing cells were scraped and frozen as dry pellets until assayed for total activity. Aconitase activity was measured as the rate of appearance of NADPH (at 340 nm; Beckman DU 800 spectrophotometer, Brea, Calif.) for 45 min during the reaction of 200 μg total sample protein with 200 μM NADP^+ and 10 U isocitrate dehydrogenase as previously described (Case et al., 2011). Maximal ETC complex activity was measured as previously described (Birch-Machin et al., 1994). Complex I activity was quantified as the rate of rotenone-inhibitable NADH oxidation (320 nm; c=6.22 mM^−1 cm^−1). Complex II activity as the difference in the rate of DCIP reduction in the presence and absence of succinate (at 600 nm; ε=19.1 mM^−1 cm^−1). Complex IV activity was assayed as the rate of oxidation of cytochrome c ([…]; ε=19.6 mM^−1 cm^−1). Rates of activities were normalized to total protein by Lowry.
(§5) Exponentially growing cells were scraped and frozen as dry pellets until assayed for protein content (Lowry) and maximal ETC complex activity as previously described (Birch-Machin et al., 1994). Briefly, dry cell pellets were resuspended in 20 mM potassium phosphate buffer and sonicated 3×10 s each. Rates of activities were normalized to total protein. Complex I activity was quantified as the rate of rotenone-inhibitable NADH oxidation (320 nm; ε=6.22 mM-1 cm-1). […]

NHAs = assay: Cellular labile iron pool (Calcein-AM flow cytometry), NHAs; assay type: cell-based, human; settings: increasing doses of ascorbate
Procedure: as §1, §2

terminal cancer patients = settings: high doses of ascorbate given both IV and orally; cited from earlier work
U87 cells = assay: Clonogenic survival assay, U87 GBM cells; assay type: cell-based, human
Procedure: Treatment conditions for individual experiments are as described in the figure legends and summarized in the Supplemental Experimental Procedures.
1-2×10^5 cells were plated in 60 mm cell culture dishes and grown in their respective media for 48 h before exposed to experimental conditions. […] For AdGPx1 experiments, cells were supplemented with 50 nM sodium selenite following transduction and throughout clonogenic growth. […] After treatment, cells were washed with PBS and clonogenic assay was completed in their respective media. Briefly, floating and attached cells were collected and total cells per plate were counted. An experimentally derived number of cells were plated into each well of a 6-well cell culture plate in their respective media. For HEL92.1.7 suspension cells, cells were seeded in a top layer of 0.4% (w/v) agarose to allow for quantifiable colony formation. […] Normalized survival fractions were calculated by comparing plating efficiencies of each treatment group against the control group within a given experiment.

OCI-MY5 = assay: Colony formation on soft agar, OCI-MY5 myeloma cells; assay type: cell-based, human; settings: 1 h treatment, colonies after 10-14 days
Description: as §3

ETC complex II = ETC complex II activity after ascorbate exposure; assay type: cell-based, human; settings: 15 pmol cell^−1 ascorbate for 1 h, NSCLC cell lysates
Procedure: as §4, §5

Structure (SMILES): O=C1O[C@H]([C@@H](O)CO)C(O)=C1O [ascorbate, L-ascorbic acid]
- Km (ferritin): 1300 µM
- cellular LIP after ascorbate (GBM cells): significant dose-dependent ascorbate-induced increases in cellular LIP
- ascorbate dose giving complete growth inhibition (colony formation) (ARP1): ≥ 10 pmol/cell
- ETC complex IV activity (ETC complex IV): no inhibition of activity
- cellular LIP after ascorbate (NHAs): not seen
- average increase in survival (terminal cancer patients): 300 days
- sensitization to temozolomide + IR (clonogenic survival) (U87 cells; 1 h ascorbate + 25 μM temozolomide + 2 Gy IR): selectively sensitized
- clonogenic survival / cell killing (U87 cells; ascorbate alone, increasing concentrations, 1 h): dose-dependent clonogenic cell killing
- ascorbate dose giving complete growth inhibition (colony formation) (OCI-MY5): ≥ 10 pmol/cell
- ETC complex II activity (ETC complex II): inactivation
